# Laboratory results: ChEMBL document CHEMBL1155611, “Isolation and structure of the cytotoxin lyngbyabellin B and absolute configuration of lyngbyapeptin A from the marine cyanobacterium Lyngbya majuscula” (J Nat Prod, 2000)
# The source made the active and inactive calls. The rule behind the calls is not given here.
# How the values were obtained:
# KB = test: Cytotoxicity against human KB cells; assay type: functional, cell-based
# LoVo = test: Cytotoxicity against human LoVo cells; assay type: functional, cell-based
SMILES,Activity (KB),Activity (LoVo),IC50 (KB),IC50 (LoVo)
CC[C@H](C)[C@@H](C(=O)N1CCC[C@H]1c1nccs1)N(C)C(=O)[C@H](CC(C)C)N(C)C(=O)[C@H](Cc1ccc(OC)cc1)N(C)C(=O)/C=C(\C)OC,inactive,inactive,–,–
CC(C)[C@@H]1NC(=O)CNC(=O)[C@@H]2CSC(=N2)[C@H](C(C)(C)O)OC(=O)C(C)(C)[C@H](CCCC(C)(Cl)Cl)OC(=O)c2csc1n2 [LYNGBYABELLIN B],–,–,0.1 mg/L,0.83 mg/L
